Experimental findings from ChEMBL document CHEMBL1154813, “Asymmetric synthesis of anticancer beta-lactams via Staudinger reaction: utilization of chiral ketene from carbohydrate” (2010) are described below.

Holding throughout (format): functional
One test deals with K562. The experiment in a line: Cytotoxicity against human K562 cells by MTT assay.
For the next test, the system named is HT-29. As to the kind of experiment: Cytotoxicity against human HT-29 cells by MTT assay. A general note: Formazan colour is commonly taken as a measure of viable cells.
For another test, the system named is PC-3. As to the kind of experiment: Cytotoxicity against human PC3 cells by MTT assay.
For a further test, the system named is HL-60. As to the kind of experiment: Cytotoxicity against human HL60 cells by MTT assay.
A further test relates to MDA-MB-231. The experiment in a line: Cytotoxicity against human MDA-MB-231 cells by MTT assay.
The subject of the next test is SK-OV-3. As to the kind of experiment: Cytotoxicity against human SKOV3 cells by MTT assay.
The nature of test [1]: Cytotoxicity against human BRO cells by MTT assay.

Each structure is given as a SMILES string.

For the molecule `CC(=O)O[C@H]1C(=O)N(c2cc3c4ccccc4ccc3c3ccccc23)[C@@H]1c1ccccc1`, the INH was found to be 6 µM in the test with K562; 8.3 µM in the test with HT-29; 15.5 µM in the test on PC-3; 5.4 µM in the test on HL-60; 8.5 µM with MDA-MB-231; 6.1 µM in the test on SK-OV-3. The molecule also showed an INH in test [1] of 22 µM.
As for `CC(=O)O[C@H]1C(=O)N(c2cc3c4ccccc4ccc3c3ccccc23)[C@@H]1c1ccccc1` (racemic), the INH is 1.1 µM with K562; 2 µM in the test with HT-29; 11.1 µM in the test on PC-3; 0.7 µM with HL-60; 8.7 µM in the test with MDA-MB-231; 8.9 µM in the test with SK-OV-3. This molecule also returned an INH in test [1] of 15.7 µM.
`CC(=O)O[C@@H]1C(=O)N(c2cc3c4ccccc4ccc3c3ccccc23)[C@H]1c1ccccc1`: the INH was determined as 1.1 µM in the test with K562; 0.7 µM with HT-29; 1.4 µM in the test with PC-3; 0.7 µM in the test on HL-60; 0.8 µM in the test with MDA-MB-231; 6.8 µM in the test with SK-OV-3. The same molecule registered an INH in test [1] of 6.1 µM.
